This note sets out measurements from patent publication US20210007356A1, “IMIDE DERIVATIVE AND FUNGICIDE CONTAINING SAID DERIVATIVE AS ACTIVE INGREDIENT” (HOKKO CHEMICAL INDUSTRY CO., LTD., priority 2018, published 2021).

Assay [1] has as its system barley powdery mildew fungus (Erysiphe graminis). In words: Test Example 2: control effect against barley powdery mildew by foliage application. In kind it is in vivo. The following applies: wettable powder diluted to 100 ppm, 10 mL per pot foliage spray on barley; inoculated day after; 7 days after inoculation.
Assay [2] concerns rice blast fungus (Pyricularia grisea). The class given is in vivo. As to conditions: flowable 1,000 ppm, 1 mL dripped in paddy water, inoculated after 1 week, 7 days after inoculation.
For assay [3] the test system is unchanged. In kind it is in vivo. The following applies: flowable diluted to 100 ppm, 10 mL per pot foliage spray on paddy rice; inoculated day after; 7 days after inoculation.
Assay [4] shares this test system. In kind it is in vivo. As to conditions: 5 g of granule on nursery box, paddy rice; inoculated after 3 weeks; 7 days after inoculation.
The subject of assay [5] is rice sheath blight fungus (Thanatephorus cucumeris). Briefly: Test Example 8: control effect against rice sheath blight by box treatment (granule). The following applies: 5 g of granule on nursery box, paddy rice; inoculated after 3 weeks; 7 days after inoculation.
For assay [6], the system named is rice blast fungus (Pyricularia grisea). The class given is in vivo. The following applies: flowable 5,000 ppm, 50 mL irrigation of nursery box, paddy rice; inoculated after 3 weeks; 7 days after inoculation.
The test system of assay [7] is rice sheath blight fungus (Thanatephorus cucumeris). Briefly: Test Example 6: control effect against rice sheath blight by box treatment (flowable formulation). The following applies: flowable 5,000 ppm, 50 mL irrigation of nursery box, paddy rice; inoculated after 3 weeks; 7 days after inoculation.
The test system is the same in assay [8]. In words: Test Example 10: control effect against rice sheath blight by water surface application (flowable formulation). As to conditions: flowable 1,000 ppm, 1 mL dripped in paddy water, inoculated after 1 week, 7 days after inoculation.

Where two headings read alike, the source gives them in different places.

With `CCc1nc(C(F)F)c(C(=O)N(C(=O)c2sc(C)nc2C(F)F)c2ccccc2C(C)CC(C)C)s1` (stereo not shown) [7-216], in assay [1], the “evaluation value of control effect (from control value, lesion area percentage)” value was found to be 4. The “evaluation value of control effect (from control value, number of lesions)” value in assay [2] is given as 5; in assay [3] it was 4; in assay [4] it was 5; in assay [6], 5. Also, the “evaluation value of control effect (from control value, lesion height)” value in assay [5], in assay [7] and in assay [8] was 5 in each case.

As to `Cc1nnsc1C(=O)N(C(=O)c1cn(C)nc1C(F)F)c1cccc2c1C(C)OC2(C)C` (stereo not shown) [25-56], the “evaluation value of control effect (from control value, lesion area percentage)” value in assay [1] is listed as 4. Moreover, the “evaluation value of control effect (from control value, number of lesions)” value in assay [2] is 5; in assay [3], 4; in assay [4] it was 5; in assay [6] it was 5. The “evaluation value of control effect (from control value, lesion height)” value in assay [5], in assay [7] and in assay [8] was 5 each time.

Take `Cc1nc(C(F)F)c(C(=O)N(C(=O)c2sc(C)nc2C(F)F)c2ccccc2C(C)CC(C)C)s1` (stereo not shown) [7-238, 4-Difluoromethyl-N-{4-(difluoromethyl)-2-methyl-thiazole-5-carbonyl}-N-{2-(1,3-dimethylbutyl)phenyl}-2-methyl-thiazole-5-carboxamide]: in assay [1], the “evaluation value of control effect (from control value, lesion area percentage)” value was 5. Also, the “evaluation value of control effect (from control value, number of lesions)” value came to 5 in assay [2], 4 in assay [3], 5 in assay [4] and 5 in assay [6]. Also, the “evaluation value of control effect (from control value, lesion height)” value in assay [5], in assay [7] and in assay [8] was 5 throughout.

Turning to `Cn1cc(C(=O)N(C(=O)c2snc(Cl)c2Cl)c2ccccc2C2CC2C2CC2)c(C(F)F)n1` (stereo not shown) [1-29], the “evaluation value of control effect (from control value, lesion area percentage)” value in assay [1] was 4. The “evaluation value of control effect (from control value, number of lesions)” value in assay [2] is 5; in assay [3], 4; in assay [4], 5; in assay [6], 5. Moreover, the “evaluation value of control effect (from control value, lesion height)” value in assay [5], in assay [7] and in assay [8] was 5 throughout.

In the case of `Cc1nsc(C(=O)N(C(=O)c2scnc2C(F)F)c2ccccc2C(C)CC(C)C)c1Cl` (stereo not shown) [7-141], the “evaluation value of control effect (from control value, lesion area percentage)” value in assay [1] stood at 4. The “evaluation value of control effect (from control value, number of lesions)” value in assay [2] is on record as 5; in assay [3], 4; in assay [4] it was 5; in assay [6], 5. In addition, the “evaluation value of control effect (from control value, lesion height)” value in assay [5], in assay [7] and in assay [8] was 5 throughout.
